Data on two molecules can be found in EP4048709B1, “A DRUG FOR THE TREATMENT OF CERVICAL CANCER” (Yildiz Teknik Universitesi, priority 2020, dated 2022).

Series [1] concerns HeLa cells. As to the kind of experiment: proliferation rate analysis (MTT, mitochondrial dehydrogenase enzyme activity). Type of series: cell-based, human. To be noted: for absorbance values / viability of cells: 24 hours; for absorbance values: MTT, 570 nm with reference to 690 nm, control group 590×10^-3; for viability of cells: control group considered 100%. The protocol: Different concentrations of In(III)Pc complex were applied to cultured human cervical cancer originated HeLa cells for 24 hours in order to determine the changes in mitochondrial dehydrogenase enzyme activity of cancer cells by means of the In(III)Pc complex obtained. For proliferation rate analysis, routinely cultured HeLa cells were cultivated in culture plates with 96 wells such that the growth medium is 3×10^4 cell/ml per well. In(III)Pc complex prepared at 50 µM, 100 µM, and 150 µM concentrations were applied to the cells after waiting for the cells to adhere and spread. The growth medium in the wells was withdrawn and 40 µl of 3-(4,5-dimethylthiazol-2-yl)-2,5-diphenyltetrazolium bromide (MTT) (5mg/ml) was added at the end of the experiment periods. 160 µl of dimethyl sulfoxide (DMSO) was added to the wells with MTT and incubated for 1 hour in a shaker incubator after waiting for approximately 4 hours. The absorbance values of the formed experimental groups were carried out by means of the spectrophotometer measurements at 570 nm with reference to the 690 nm wavelength after the formazan crystals formed are dissolved for the 1 hour incubation period. The absorbance values obtained as a result of this application were measured as 590×10^-3 for the control group; 460 ×10^-3 for 50 µM; 280 ×10^-3 for 100 µM, and 170 ×10^-3 for 150 µM.

For series [2], the system named is HeLa cells. As to the kind of experiment: mitotic index (Feulgen method, Giemsa staining). It is filed as cell-based, human. To be noted: 100 µM. As to the method:
As a result of applying the optimum concentration of the product(100 µM) on HeLa cells for 0-72 hours, the preparations prepared according to the experimental groups were primarily hydrolyzed with 1 N hydrochloric acid (HCl) at room temperature for 1 minute and then with 1 N HCl at 60°C for 10 minutes in order to determine the effects on the mitotic index values of the cells. After hydrolysis, the Feulgen method was applied to the preparations for 1 hour. Then, these preparations were washed 3 times for 2 minutes with a washing solution, which is specific to the Feulgen method, and air-dried. After the preparations were dried, they were prepared for counting by means of staining with Giemsa dye for 2 minutes. Late prophase, metaphase, anaphase, and telophase stages were counted in order to determine the mitosis index (MI) values of said preparations. The early prophase stage was evaluated together with this stage, as it was morphologically similar to the cells in the interphase group.
Three preparations were evaluated for each experimental group and mitosis index values were determined by means of counting 3000 cells on average from each preparation. The mitosis index values have been decreased from 6% to 3,7% at the 24th hour; from 6,68% to 2,21% at the 48th hour, and from 7,56% to 1,19% at the 72nd hour.

Series [3] can be described thus: singlet oxygen quantum yield (DPBF quencher, ZnPc standard). Type of series: physicochemical. Particulars: irradiated in the Q band area, room conditions, Figure 7. As to the method: Singlet oxygen quantum yields of the inventive Compound 2 were calculated by means of Zinc (II) phthalocyanine (ZnPc) standard and 1,3-diphenylisobenzofuran (DPBF) singlet oxygen quencher at room conditions via using Equation-2 below: ΦΔ = ΦΔ^Std .(RDPBF .Iabs^Std)/(RDPBF^Std .Iabs) [formula] wherein, • Φ^StdΔ; the singlet oxygen yield (ZnPc ΦΔ = 0,53 in THF) • ΦΔ; for example, singlet oxygen yield, • RDPBF; the degradation rate of DPBF in the presence of the sample, • ROPBFstd; the degradation rate of DPBF in the presence of the standard, • Iabs; the light absorption rate of sample and standard, • IabStd; the light absorption rate of the standard.
DPBF with a concentration of […] was used in order to prevent chain reactions caused by the presence of singlet oxygen. Solutions of a sensitizer containing DPBF (absorbance at irradiation wavelength = 2.0) were prepared in a dark environment and irradiated in the Q band area by means of using the setup described above. This yield was found as 49%, according to Figure 7. […]

The subject of series [4] is HeLa cells. Kind of series: cell index, real-time cell analysis system. It is filed as cell-based, human. Particulars: 72 hours. As to the method:
In the present invention, the cell index parameter was evaluated by means of using a real-time cell analysis system in order to both support the results obtained and to determine the types of cell death, and an E-Plate with 16 wells was used in order to evaluate this parameter. Primarily, 100 µl of growth medium was added to each well of the E-Plate, and background measurements were taken in the cell analyzer device. Then, cultivation is performed in each well such that the 100 µl of growth medium has 6000 cells for HeLa cells. The E-Plates were incubated for 20 minutes in a sterile working cabinet at room temperature, and then placed in the cell analyzer device and incubation was continued at 37°C under ambient conditions of 5% carbon dioxide (CO2) after the cultivation process. The cell analyzer was issued a command to take the measurement every 15 minutes after the cell cultivation to the E-Plates was performed. After approximately 24 hours of cell cultivation, the growth medium in the E-Plates was changed with a growth medium containing different concentrations of In(III)Pc complex at the 1/3rd slice of the proliferation phase of the cells, and measurements were continued at 15-minute intervals for 72 hours. Subsequently, graphics of concentration and time-dependent cell index values were transferred to the computer screen. The antiproliferative effects of the In(III)Pc complex on HeLa cells are observed when the cell index values obtained from the real-time cell analysis system are examined.

A short description of series [5]: photodegradation quantum yield under irradiation. It is filed as physicochemical. As to the method: DPBF with a concentration of […] was used in order to prevent chain reactions caused by the presence of singlet oxygen. Solutions of a sensitizer containing DPBF (absorbance at irradiation wavelength = 2.0) were prepared in a dark environment and irradiated in the Q band area by means of using the setup described above. This yield was found as 49%, according to Figure 7. The maximum absorbance of the Q band in the solutions of all complexes was set to 1.0 in the solvent used in order to determine the photodegradation quantum yield (Φd), and the decrease in the intensity of the Q band under irradiation with time is observed by means of using the following Equation-3: Φd = ((C0−Ct).V.NA)/(Iabs .S.t) [formula] wherein, • C0 (mol.dm^-3); concentration of Compound 2 before irradiation, • Ct (mol.dm^-3); concentration of Compound 2 […]; reaction volume (3.0 cm^3), • S; irradiated cell area, • t; irradiation time, • NA; Avogadro's number, • Iabs; the overlapping integration of the radiation source intensity. […] It has been observed that Compound 2 is active in destroying cancer cells, and as such may have a potential for the treatment of cancer with PDT when considering the PDT characteristic measurement results described above.

Series [6] in a line: solubility in common solvents. Type of series: physicochemical. Particulars: chloroform, acetone, THF, ethanol, methanol, DMF or DMSO. The protocol: The compound obtained by means of the aforementioned method is in the form of a dark green crystal, and the yield thereof is 82 mg (16,14%). The closed formula of Compound 2, which has a melting point >300°C is C89H99InN8O6, and its molecular weight is 1491,61 g/mol. It has been determined that C, 71.66; H, 6.69; […]; N, 7.51; O, 6.44 when the theoretical elemental analysis of the compound was performed. FTIR analysis was conducted in order to shed light upon the structure of said Compound 2 and it is illustrated in Figure 3. […] Table 1. The solubility data of the In(III) Pc compound.

For series [7] the following is noted: standard, in THF; cited from earlier work.

For the molecule “1,8(11), 15(18),22(25)-tetra-(3,5-di-tert-butylphenoxy) indium (III) phthalocyanine [Compound 2]”, the absorbance values is on record as 460 ×10^-3 with HeLa cells [1] (50 µM), 280 ×10^-3 in the series on HeLa cells [1] (100 µM) and 170 ×10^-3 with HeLa cells [1] (150 µM). Further, the figures for the viability of cells in the series on HeLa cells [1] (50 µM), with HeLa cells [1] (100 µM) and in the series on HeLa cells [1] (150 µM) were 78%, 47.45% and 28.81%, respectively. The “death of the cells” value with HeLa cells [1] (100 µM) came to 52.55%. Besides, the IC50 in the series with HeLa cells [1] (HeLa cells, read-out: IC50 concentration) was determined as 100 µM. Besides, the mitosis index values in the series on HeLa cells [2] (24th hour, decreased from 6%) is listed as 3,7%; in the series with HeLa cells [2] (48th hour, decreased from 6,68%) it was 2,21%; in the series with HeLa cells [2] (72nd hour, decreased from 7,56%), 1,19%. This molecule gave a singlet oxygen yield in series [3] of 49%. The “effect on cell index values compared with standard curves” value in the series with HeLa cells [4] (50 µM) is on record as “does not show a significant effect”; in the series on HeLa cells [4] (100 µM (optimum concentration)), “DNA damaging effect”; with HeLa cells [4] (100 µM (optimum concentration), listed as In(III)Pc complex) it was “DNA damage”; in the series on HeLa cells [4] (150 µM) it was “cytoskeletal effect”. For the same molecule, the “photodegradation quantum yield (Φd)” value in series [5] (Q band absorbance set to 1.0, irradiation with time) is 2,0017×10^-05. Further, the “stability under the light” value in series [5] (from the photodegradation quantum yield) is “stable under the light”. The solubility entry in series [6] is reported as “capable of getting dissolved in common solvents”.
For `[Zn+2].c1ccc2c(c1)-c1nc-2nc2[n-]c(nc3nc([n-]c4nc(n1)-c1ccccc1-4)-c1ccccc1-3)c1ccccc21` [ZnPc, Zinc (II) phthalocyanine], in series [7], the “singlet oxygen yield ΦΔ” value is reported as 0,53.
